From patent US20240124442A1, “TRICYCLIC-AMIDO-BICYCLIC PRMT5 INHIBITORS” (AMGEN INC., priority 2021, published 2024)

Assays:
HCT116 MTAP null cells = experiment: HCT116 MTAP null cell line proliferation / cell viability (CellTiter-Glo, 6 days); assay type: cell-based; conditions: 144 h; HCT116 MTAP null cells, 6 days treatment, CellTiter-Glo cell viability; read-out: HCT-116 MTAP null IC50
In short: (§1)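 WT vs MTAP-null HCT116, 6 d drug, CTG readout. 1:3 × 8–9 pts (top 1/10 μM) or 1:2 × 22 pts (top 10/50 μM). IC50 by 4PL or Hill −1 fit.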

HCT116 WT cells = experiment: HCT116 WT (parent) cell line proliferation / cell viability (CellTiter-Glo, 6 days); assay type: cell-based; conditions: Homo sapiens, HCT-116, 144 h, 6 days treatment
In short: as §1

CN(C(=O)c1cc2c3c(c(N)nc2cc1F)COC3)[C@H]1COc2cc(S(C)(=O)=O)ccc21 (single isomer, unassigned) [Example 354]
IC50 (HCT116 MTAP null cells): 3.87 µM
IC50 (HCT116 WT cells): 50 µM

CN(C(=O)c1cc2c3c(c(N)nc2cc1F)COC3)[C@@H]1COc2cc(C(F)(F)F)cc(F)c21 (single isomer, unassigned) [Example 355]
IC50 (HCT116 MTAP null cells): 0.026 µM
IC50 (HCT116 WT cells): 1.18 µM

CN(C(=O)c1cc2c3c(c(N)nc2cc1F)COC3)[C@H]1COc2cc(C(F)(F)F)cc(F)c21 (single isomer, unassigned) [Example 356]
IC50 (HCT116 MTAP null cells): 1.04 µM
IC50 (HCT116 WT cells): 11.3 µM

CN(C(=O)c1cc2c3c(c(N)nc2cc1F)COC3)[C@@H]1COc2cc(S(F)(F)(F)(F)F)ccc21 (single isomer, unassigned) [Example 357]
IC50 (HCT116 MTAP null cells): 0.012 µM
IC50 (HCT116 WT cells): 0.208 µM

CN(C(=O)c1cc2c3c(c(N)nc2cc1F)COC3)[C@H]1COc2cc(S(F)(F)(F)(F)F)ccc21 (single isomer, unassigned) [Example 358]
IC50 (HCT116 MTAP null cells): 1.2 µM
IC50 (HCT116 WT cells): 8.85 µM

C[C@H]1OCc2c1c(N)nc1cc(F)c(C(=O)N(C)[C@@H]3CCc4nc(C(F)(F)F)ccc43)cc21 (single isomer, unassigned) [Example 359]
IC50 (HCT116 MTAP null cells): 0.017 µM
IC50 (HCT116 WT cells): 1.23 µM

C[C@H]1OCc2c1c(N)nc1cc(F)c(C(=O)N(C)[C@H]3CCc4nc(C(F)(F)F)ccc43)cc21 (single isomer, unassigned) [Example 360]
IC50 (HCT116 MTAP null cells): 0.81 µM
IC50 (HCT116 WT cells): 42.3 µM

CN(C(=O)c1cc2c3c(c(N)nc2cc1Cl)COC3)[C@@H]1COc2cc(C(F)(F)F)ncc21 (single isomer, unassigned) [Example 361]
IC50 (HCT116 MTAP null cells): 0.029 µM
IC50 (HCT116 WT cells): 1.34 µM

CN(C(=O)c1cc2c3c(c(N)nc2cc1Cl)COC3)[C@H]1COc2cc(C(F)(F)F)ncc21 (single isomer, unassigned) [Example 362]
IC50 (HCT116 MTAP null cells): 0.744 µM
IC50 (HCT116 WT cells): 35.6 µM

CN(C(=O)c1ccc2nc(N)c3cnn(C)c3c2c1)[C@@H]1CCc2nc(C(F)(F)F)ccc21 (single isomer, unassigned) [Example 363]
IC50 (HCT116 MTAP null cells): 0.017 µM
IC50 (HCT116 WT cells): 2.5 µM

CN(C(=O)c1ccc2nc(N)c3cnn(C)c3c2c1)[C@H]1CCc2nc(C(F)(F)F)ccc21 (single isomer, unassigned) [Example 364]
IC50 (HCT116 MTAP null cells): 2.86 µM
IC50 (HCT116 WT cells): 34.9 µM

CCN(C(=O)c1ccc2nc(N)c3cnn(C)c3c2c1)[C@@H]1COc2cc(C(F)(F)F)ccc21 (single isomer, unassigned) [Example 365]
IC50 (HCT116 MTAP null cells): 0.005 µM
IC50 (HCT116 WT cells): 0.212 µM

CN(C(=O)c1ccc2nc(N)c3cnn(C)c3c2c1)[C@@H]1COc2cc(S(F)(F)(F)(F)F)ccc21 (single isomer, unassigned) [Example 366]
IC50 (HCT116 MTAP null cells): 0.006 µM
IC50 (HCT116 WT cells): 0.155 µM

CN(C(=O)c1ccc2nc(N)c3cnn(C)c3c2c1)[C@H]1COc2cc(S(F)(F)(F)(F)F)ccc21 (single isomer, unassigned) [Example 367]
IC50 (HCT116 MTAP null cells): 0.485 µM
IC50 (HCT116 WT cells): 5.27 µM

CN(C(=O)c1ccc2nc(N)c3cnn(C)c3c2c1)[C@@H]1CCc2cc(Br)ccc21 (single isomer, unassigned) [Example 368]
IC50 (HCT116 MTAP null cells): 0.037 µM
IC50 (HCT116 WT cells): 2.53 µM

CN(C(=O)c1ccc2nc(N)c3cnn(C)c3c2c1)[C@H]1CCc2cc(Br)ccc21 (single isomer, unassigned) [Example 369]
IC50 (HCT116 MTAP null cells): 0.519 µM
IC50 (HCT116 WT cells): 4.13 µM

CN(C(=O)c1ccc2nc(N)c3cnn(C)c3c2c1)[C@@H]1CCc2nc(Br)ccc21 (single isomer, unassigned) [Example 370]
IC50 (HCT116 MTAP null cells): 0.029 µM
IC50 (HCT116 WT cells): 1.8 µM

CN(C(=O)c1cc2c(cn1)nc(N)c1cnn(C)c12)[C@@H]1CCc2nc(C(F)(F)F)ccc21 (single isomer, unassigned) [Example 371]
IC50 (HCT116 MTAP null cells): 0.027 µM
IC50 (HCT116 WT cells): 1.62 µM

CCN(C(=O)c1cc2c(cn1)nc(N)c1cnn(C)c12)[C@@H]1COc2cc(C(F)(F)F)ccc21 (single isomer, unassigned) [Example 372]
IC50 (HCT116 MTAP null cells): 0.01 µM
IC50 (HCT116 WT cells): 0.114 µM

CN(C(=O)c1cc2c(cc1F)nc(N)c1cnn(C)c12)[C@@H]1COc2cc(C#N)ccc21 (single isomer, unassigned) [Example 373]
IC50 (HCT116 MTAP null cells): 0.004 µM
IC50 (HCT116 WT cells): 0.235 µM

CN(C(=O)c1cc2c(cc1F)nc(N)c1cnn(C)c12)[C@H]1COc2cc(C#N)ccc21 (single isomer, unassigned) [Example 374]
IC50 (HCT116 MTAP null cells): 0.272 µM
IC50 (HCT116 WT cells): 22.4 µM

CN(C(=O)c1cc2c(cc1F)nc(N)c1cnn(C)c12)[C@@H]1CCc2nc(C(F)(F)F)ccc21 (single isomer, unassigned) [Example 375]
IC50 (HCT116 MTAP null cells): 0.009 µM
IC50 (HCT116 WT cells): 0.568 µM

CN(C(=O)c1cc2c(cc1F)nc(N)c1cnn(C)c12)[C@H]1CCc2nc(C(F)(F)F)ccc21 (single isomer, unassigned) [Example 376]
IC50 (HCT116 MTAP null cells): 0.882 µM
IC50 (HCT116 WT cells): 12.8 µM

CN(C(=O)c1cc2c(cc1F)nc(N)c1cnn(C)c12)[C@@H]1COc2nc(C(F)(F)F)ccc21 (single isomer, unassigned) [Example 377]
IC50 (HCT116 MTAP null cells): 0.01 µM
IC50 (HCT116 WT cells): 0.595 µM

CN(C(=O)c1cc2c(cc1F)nc(N)c1cnn(C)c12)[C@@H]1COc2cc(S(C)(=O)=O)ccc21 (single isomer, unassigned) [Example 378]
IC50 (HCT116 MTAP null cells): 0.01 µM
IC50 (HCT116 WT cells): 0.239 µM

CN(C(=O)c1cc2c(cc1F)nc(N)c1cnn(C)c12)[C@H]1COc2cc(S(C)(=O)=O)ccc21 (single isomer, unassigned) [Example 379]
IC50 (HCT116 MTAP null cells): 0.49 µM
IC50 (HCT116 WT cells): 13.5 µM

CN(C(=O)c1cc2c(cc1F)nc(N)c1cnn(C)c12)[C@@H]1COc2cc(C(F)(F)F)cc(F)c21 (single isomer, unassigned) [Example 380]
IC50 (HCT116 MTAP null cells): 0.023 µM
IC50 (HCT116 WT cells): 1.54 µM

CN(C(=O)c1cc2c(cc1F)nc(N)c1cnn(C)c12)[C@H]1COc2cc(C(F)(F)F)cc(F)c21 (single isomer, unassigned) [Example 381]
IC50 (HCT116 MTAP null cells): 0.195 µM
IC50 (HCT116 WT cells): 11.1 µM

CN(C(=O)c1cc2c(cc1F)nc(N)c1cnn(C)c12)[C@@H]1COc2cc(S(F)(F)(F)(F)F)ccc21 (single isomer, unassigned) [Example 382]
IC50 (HCT116 MTAP null cells): 0.004 µM
IC50 (HCT116 WT cells): 0.063 µM

CN(C(=O)c1cc2c(cc1F)nc(N)c1cnn(C)c12)[C@H]1COc2cc(S(F)(F)(F)(F)F)ccc21 (single isomer, unassigned) [Example 383]
IC50 (HCT116 MTAP null cells): 0.38 µM
IC50 (HCT116 WT cells): 5.66 µM

CN(C(=O)c1cc2c(cc1Cl)nc(N)c1cnn(C)c12)[C@]1(C)CCc2nc(C(F)(F)F)ccc21 (single isomer, unassigned) [Example 384]
IC50 (HCT116 MTAP null cells): 0.869 µM
IC50 (HCT116 WT cells): 17.2 µM

CN(C(=O)c1cc2c(cc1Cl)nc(N)c1cnn(C)c12)[C@@H]1CCc2nc(C(F)(F)F)ccc21 (single isomer, unassigned) [Example 385]
IC50 (HCT116 MTAP null cells): 0.007 µM
IC50 (HCT116 WT cells): 0.297 µM

CN(C(=O)c1cc2c(cc1Cl)nc(N)c1cnn(C)c12)[C@H]1CCc2nc(C(F)(F)F)ccc21 (single isomer, unassigned) [Example 386]
IC50 (HCT116 MTAP null cells): 0.552 µM
IC50 (HCT116 WT cells): 13.6 µM

CN(C(=O)c1cc2c(cc1Cl)nc(N)c1cnn(C)c12)[C@@H]1COc2nc(C(F)(F)F)ccc21 (single isomer, unassigned) [Example 387]
IC50 (HCT116 MTAP null cells): 0.005 µM
IC50 (HCT116 WT cells): 0.136 µM

CN(C(=O)c1cc2c(cc1Cl)nc(N)c1cnn(C)c12)[C@H]1COc2nc(C(F)(F)F)ccc21 (single isomer, unassigned) [Example 388]
IC50 (HCT116 MTAP null cells): 0.136 µM
IC50 (HCT116 WT cells): 7.54 µM
